Laboratory results published in patent US20240415793A1, “Neuroprotective composition comprising pyruvate and citrate” (N.V. Nutricia, priority 2022, published 2024).

Columns and labels:
neuroglial cell cultures = experiment: Seahorse assay (OCR/ECAR), acute effects under seizure- and ketogenic diet-like conditions; type: cell-based, rat; conditions: HBSS, 0.1 mM Mg2+, 1 mM glucose, 500 μM bHB, 1 mM pyruvate, 1 mM citrate as added, vs control medium
Method: (§1) The oxygen consumption rates (OCRs) and extracellular acidification rates (ECARs) of cells seeded in 96-well plates were monitored in real time at 37° C. in unbuffered Hanks Balanced Salt Solution (HBSS). The OCRs represent foremost mitochondrial respiration, and to a minor extent non-mitochondrial respiration. The ECARs relate foremost to the acidification of the medium with lactate produced through glycolysis and secreted by the cells into the medium (Table 1).
(§2) During the Seahorse run, both the OCRs and ECARs were measured simultaneously at baseline and following the injection of compounds by the Seahorse instrument (Table 1). HBSS was supplemented with glucose from the start and no glucose was injected through the Seahorse instruments. Measurements were repeated three times at baseline and three times after each compound injection.
(§3) After the initial baseline measurement, oligomycin (OM) was injected. OM blocks mitochondrial ATP synthase (complex V) and therefore decreases mitochondrial respiration. The OCRs after OM injection are due to the mitochondrial proton leak. They enable to determine whether the test nutrients impact the proton leak. The difference in OCRs at baseline and after OM injection is the amount of oxygen used for mitochondrial ATP synthesis at baseline. From this difference in OCR, the mitochondrial ATP production rates are calculated.
After OM, uncoupling agent carbonyl cyanide-p- trifluoromethoxyphenyl-hydrazon [FCCP] was injected which collapses the proton gradient across the inner mitochondrial membrane established during respiration and required for ATP synthesis. The cells attempt to restore the proton gradient following FCCP injection by maximizing respiration. The OCRs measured after FCCP injection therefore represent the maximal respiratory capacity of the mitochondria in the sample and enable to determine whether test nutrients impact the maximal respiratory capacity of the mitochondria.
Finally, Antimycin A, a complex III inhibitor, and Rotenone, a complex I inhibitor, were co-injected, both blocking the respiratory chain at different sites to entirely shut down mitochondrial respiration and determine the non-mitochondrial respiration. The latter is necessary to correct all OCRs and obtain the mitochondrial OCRs.
The ECARs were measured simultaneously at baseline and after OM and FCCP injection. The glycolytic ATP production was calculated from the baseline ECARs. The subsequent injection of OM pushed the cells to maximize their glycolytic ATP production to compensate for the loss in mitochondrial ATP production inflicted by OM. The further addition of FCCP drove mitochondrial respiration to a maximum and this eventually led to a further increase in glycolytic rates providing pyruvate into the TCA cycle to sustain maximal respiration. Therefore, the ECARs after FCCP injection were used to determine the maximum glycolytic capacity of the cells.
To assess the effect of citrate and pyruvate under seizure- and ketogenic diet-like conditions a batch of cells was switched one hour prior to the Seahorse run to HBSS medium (which is a nutrient deprived culture medium) containing low (1 mM) glucose, 500 μM bHB and low (0.1 mM) Mg^2+, 1 mM citrate or 1 mM pyruvate (FIG. 6). The ketone p-hydroxybutyrate (bHB) was included during the Seahorse run at a concentration of 500 μM to mimic the nutrient environment of a ketogenic diet. This bHB concentration corresponds to the circulating bHB concentration of a mild ketogenic diet such as the Modified Atkins Diet.
For the Seahorse assay that was run under seizure- and ketogenic diet like-conditions the cells were then incubated in HBSS medium containing low (0.1 mM) Mg^2+ and one of the following additions: • i) 1 mM glucose (control medium), • ii) 500 μM bHB, • iii) 500 μM bHB plus 1 mM citrate, • iv) 500 μM bHB plus 1 mM pyruvate or • v) 500 μM bHB with 1 mM citrate plus 1 mM pyruvate. […]

[1] = system: primary rat neuronal-glial cell cultures; experiment: Seahorse assay (OCR/ECAR), acute 1 h nutrient pre-incubation, resting or seizure-like conditions; type: cell-based
[2] = system: primary mouse neuroglial cultures; experiment: Cell death by high content imaging (Hoechst/NeuN nuclear shrinkage) after chronic hyperstimulation; type: cell-based; conditions: 1 mM; for dead neuron count (neuron death): FIG. 10F/11F
Method: To determine whether pyruvate and citrate protect neurons and glial cells from cell death induced by chronic electrical hyperstimulation. To assess protection from cell death induced by repeated hyperstimulation, primary mouse neuroglial cultures were assayed. Neuroglial cell cultures were prepared and grown until DIV14 as described above. From DIV14 until DIV17 they were switched to NBM containing B27, low (2.5 mM) glucose, and low (0.1 mM) Mg^2+ or high (0.8 mM) Mg^2+. Incubation in low (0.1 mM) Mg^2+ medium increases the neuronal firing rates, thus creating a state of chronic hyperstimulation. The test nutrients (pyruvate or citrate) were supplied through the medium from DIV14 until DIV17. On DIV17, the cell nuclei were stained with the Hoechst dye and co-immunolabelled for NeuN, a protein found only in the nuclei of neurons. The neuronal and non-neuronal cell nuclei were scored for nuclear shrinkage, a hallmark of cell death, by high content imaging.
To assess cell death by high content imaging the cells were fixed on DIV17 in 1% formaldehyde, permeabilized with ethanol and incubated with a rabbit polyclonal IgG antibody against NeuN, a neuron-specific protein localized to the nucleus, followed by detection with a secondary anti-rabbit IgG antibody linked to a red fluorescent label. Neuronal and non-neuronal cell nuclei were then counterstained with the blue fluorescent nuclear dye Hoechst. The nuclei were counted by a high content imager based on signal intensity and size. A cut-off value was applied to exclude objects of low signal intensity considered noise. Then, cut-off values were applied to exclude objects with an area below 30 μM^2 considered cell debris and objects with an area above 300 μM^2 considered cell clumps. A boundary of 60 μM^2 was set to distinguish between nuclei from alive and dead cells. Objects areas of 30 μM^2 to 60 μM^2 were counted as nuclei from dead cells, while object areas of 60 μM^2 to 300 μM^2 were counted as nuclei from alive cells. The counting was done at 20-fold magnification on a fixed number of optical fields per well. The counts of nuclei from dead neurons or dead cells were related to the number of alive neurons or alive cells, respectively, in the same well.
Neuroglial cell cultures were supplemented with 1 mM citrate from DIV14 until DIV17. On DIV17, total cell death and neuron-specific cell death were quantified by high content imaging. The total number of Hoechst positive objects or NeuN positive objects prior to applying cut-off values for the signal intensity and the area size was equal between the different groups (FIG. 10 A, D).

[3] = system: primary rat neuronal-glial cell cultures; experiment: Seahorse assay (OCR/ECAR), acute 1 h nutrient pre-incubation, resting or seizure-like conditions; type: cell-based; conditions: 0.25 mM and 1 mM pyruvate in low Mg2+ medium vs low Mg2+ medium without pyruvate
Method: A Seahorse assay was performed on primary rat neuronal-glial cell cultures to determine the impact of pyruvate and citric acid on glycolytic rates and lactate delivery, mitochondrial respiration and total (glycolytic and mitochondrial) ATP production.
Rat cortical cells were isolated from embryonic day 18 embryos using a combination of enzymatic and mechanical dissociation of brain cortical rat tissue. Immediately after dissociation, the cells were seeded at a density of 500′000 cells per mL in 96-well plates and grown at 37° C. for two weeks from day in vitro (DIV) 0 until DIV14 in Neurobasal medium supplemented with 2% (v/v) B27, 0.8 mM Magnesium (Mg2+), 25 mM glucose and 1% (v/v) Penicillin/Streptomycin. During this time neuronal axons grew out and formed synaptic contacts. In addition, glial cells, foremost astrocytes, grew and formed contacts with neurons. The incubation in 25 mM glucose accelerated the differentiation and network growth of neurons.
From DIV14 until DIV17, the cells were incubated in Neurobasal medium supplemented with 2% (v/v) B27, 0.8 mM Mg2+, 5 mM glucose and 1% (v/v) Penicillin/Streptomycin. The switch from high to low glucose was done to approach the low intracerebral glucose concentration of the human brain and create a more physiological metabolic environment.
The switch from 5 mM to 1 mM glucose matched the glucose concentrations in the human brain. Meanwhile the switch from high (0.8 mM) to low (0.1 mM) Mg^2+ increases the electrical firing frequency of neurons because Mg2+ is an inhibitor of excitatory NMDA-type ionotropic glutamate receptors, which account for most of the neuronal firing in this cell culture model. The increase in neuronal firing caused by incubation in 0.1 mM Mg^2+ increases the energy production of neurons and glial cells as reflected in the increase in basal respiration (FIG. 1B and E). After 1 hour of pre-incubation in the Seahorse medium containing the nutrients, the oxygen consumption rate [OCRs] and extracellular acidification rate [ECARs] of the neuroglial culture were measured in the Seahorse assay.
as §1, §2, §3
After OM, uncoupling agent carbonyl cyanide-p- trifluoromethoxyphenyl-hydrazon [FCCP] was injected which collapses the proton gradient across the inner mitochondrial membrane established during respiration and required for ATP synthesis. The cells attempt to restore the proton gradient following FCCP injection by maximizing respiration. […]

| SMILES | change in basal glycolytic ATP production (neuroglial cell cultures; FIG. 6A) | change in total (mitochondrial and glycolytic) ATP production (neuroglial cell cultures; FIG. 6A) | change in basal (mitochondrial) respiration (neuroglial cell cultures; FIG. 6B) | change in FCCP-driven maximal respiratory capacity (neuroglial cell cultures; FIG. 6D) | change in basal glycolysis (neuroglial cell cultures; FIG. 7A) | change in FCCP-driven maximal glycolytic capacity (neuroglial cell cultures; FIG. 7C) | increase in total (mitochondrial and glycolytic) ATP production rates ([1]; 0.25 mM and 1 mM pyruvate in low (0.1 mM) Mg2+ medium vs low Mg2+ medium without pyruvate, FIG. 1A) | increase in FCCP-driven maximal respiratory capacity ([1]; 0.25 mM and 1 mM pyruvate in low Mg2+ medium vs low Mg2+ medium without pyruvate, FIG. 1D) | increase in dead cell counts from high Mg2+ to low Mg2+ medium ([2]; DIV14-DIV17, chronic hyperstimulation, FIG. 10C/11C) [%] | dead cell counts ([2]; DIV14-DIV17, high (0.8 mM) Mg2+ medium, FIG. 10C/11C) [%] | dead neuron count (neuron death) ([2]; DIV14-DIV17, high Mg2+ medium) [%] | dead cell counts ([2]; DIV14-DIV17, low (0.1 mM) Mg2+ medium, FIG. 10C/11C) [%] | dead neuron count (neuron death) ([2]; DIV14-DIV17, low Mg2+ medium) [%] | increase in basal respiration ([3]; FIG. 1B) | increase in oligomycin-induced proton leak ([3]; FIG. 1C) | increase in glycolytic rates at baseline ([3]; FIG. 2A) | increase in glycolytic rates after FCCP injection ([3]; FIG. 2C) |
| --- | --- | --- | --- | --- | --- | --- | --- | --- | --- | --- | --- | --- | --- | --- | --- | --- | --- |
| CC(O)CC(=O)O (centres unmarked) [bHB, b-hydroxybutyrate] | did not alter | did not impact | did not impact | did not impact | did not alter | did not alter |  |  |  |  |  |  |  |  |  |  |  |
| CC(=O)C(=O)O [pyruvate] |  |  |  |  |  |  | 400-500% | 200-250% | ~1 | ~19 | −1.5 | ~20 | ~1.4 | 30-40% | 10-15% | 15-20% | 20-30% |
